Converted amounts (≈) assume the structure as drawn. Some results are limits rather than exact numbers.

Experimental findings from patent publication US11572337B2, “Antibacterial agents: arylalkylcarboxamido phloroglucinols” (Rutgers, The State University of New Jersey, priority 2018, dated 2023) are described below.

Experiment [1] addresses E. coli RNA polymerase σ70 holoenzyme (Escherichia coli (strain K12), UniProt P0A8T7+P0A8V2). Put plainly: Fluorescence-detected assay of inhibition of Escherichia coli RNA polymerase. The format is biochemical. Particulars: T4 N25 promoter DNA, RiboGreen fluorescence, read-out: RNAP-inhibitory activity E. coli RNAP IC50. As to the method: (§1) Fluorescence-detected RNA polymerase assays with E. coli RNA polymerase were performed by a modification of the procedure of Kuhlman et al., 2004 [Kuhlman, P., Duff, H. & Galant, A. (2004) A fluorescence-based assay for multisubunit DNA-dependent RNA polymerases. Anal. Biochem. 324, 183-190]. Reaction mixtures contained […]: […] test salt, 75 nM E. coli RNA polymerase σ^70 holoenzyme, 20 nM 384 bp DNA fragment containing the bacteriophage T4 N25 promoter, 100 μM ATP, 100 μM GTP, 100 μM UTP, 100 μM CTP, 50 mM Tris-HCl, pH 8.0, 100 mM KCl, 10 mM MgCl2, 1 mM DTT, 10 μg/ml bovine serum albumin, and 5.5% glycerol. Reaction components other than DNA and NTPs were pre-incubated for 10 min at 37° C. Reactions were carried out by addition of DNA and incubation for 5 min at 37° C., followed by addition of NTPs and incubation for 60 min at 37° C. DNA was removed by addition of 1 μl 5 mM CaCl2 and 2 U DNaseI (Ambion, Inc.), followed by incubation for 90 min at 37° C. RNA was quantified by addition of 100 μI RiboGreen RNA Quantitation Reagent (Invitrogen, Inc.; 1:500 dilution in Tris-HCl, pH 8.0, 1 mM EDTA), followed by incubation for 10 min at 25° C., followed by measurement of fluorescence intensity [excitation wavelength=485 nm and emission wavelength=535 nm; QuantaMaster QM1 spectrofluorometer (PTI, Inc.)]. IC50 is defined as the concentration of inhibitor resulting in 50% inhibition of RNA polymerase activity.

Experiment [2] concerns the target S. aureus RNA polymerase core enzyme + S. aureus σA (Staphylococcus aureus (strain NCTC 8325 / PS 47), UniProt P47768+Q2G0N5). Put plainly: Fluorescence-detected assay of inhibition of Staphylococcus aureus RNA polymerase. It counts as biochemical. The note with it: T4 N25 promoter DNA, RiboGreen fluorescence, read-out: RNAP-inhibitory activity S. aureus RNAP IC50. Here is the method: as §1
Fluorescence-detected RNA polymerase assays with S. aureus RNA polymerase were performed as in Example 2.1, using reaction mixtures containing (20 μl): 0-100 nM test salt, 75 nM S. aureus RNA polymerase core enzyme, 300 nM S. aureus σ^A, 20 nM 384 bp DNA fragment containing the bacteriophage T4 N25 promoter, 100 μM ATP, 100 μM GTP, 100 μM UTP, 100 μM CTP, 40 mM Tris-HCl, pH 8.0, 80 mM NaCl, 5 mM MgCl2, 2.5 mM DTT, and 12.7% glycerol. IC50 is defined as the concentration of inhibitor resulting in 50% inhibition of RNA polymerase activity.

The test system of experiment [3] is Staphylococcus aureus ATCC 12600. Put plainly: Inhibition of growth of Staphylococcus aureus (spiral gradient endpoint MIC assay). It counts as cell-based. Particulars: ATCC12600, Mueller-Hinton II cation-adjusted agar, 16 h at 37° C., read-out: in vitro antibacterial activity S. aureus ATCC12600 MIC. The text has this:
Minimum inhibitory concentrations (MICs for Staphylococcus aureus ATCC 12600 were quantified using spiral gradient endpoint assays, essentially as described [Wallace, A. and Corkill, J. (1989) Application of the spiral plating method to study antimicrobial action. J. Microbiol. Meths. 10, 303-310; Paton, J., Holt, A., and Bywater, M. (1990) Measurement of MICs of antibacterial agents by spiral gradient endpoint compared with conventional dilution methods. Int. I Exp. Clin. Chemother. 3, 31-38; Schalkowsky S. (1994) Measures of susceptibility from a spiral gradient of drug concentrations. Adv. Exp. Med. Biol. 349, 107-120]. Assays employed exponential-gradient plates containing 150 mm×4 mm Mueller-Hinton II cation-adjusted agar and 0.4-100 μg/ml of test salt. Plates were prepared using an Autoplate 4000 spiral plater (Spiral Biotech, Inc.). Saturated overnight cultures were swabbed radially onto plates, and plates were incubated for 16 h at 37° C. For each culture, the streak length was measured using a clear plastic template (Spiral Biotech, Inc.), the test-salt concentration at the streak endpoint was calculated using the program SGE (Spiral Biotech, Inc.), and the MIC was defined as the calculated test-salt concentration at the streak endpoint.

`O=C(NCc1ccc(Cl)cc1)c1c(O)cc(O)cc1O` [Compound 0MTK107, N-(4-chlorobenzyl)-2,4,6-trihydroxybenzamide]: the values for the IC50 in experiment [1] and in experiment [2] were 400 nM and 2000 nM, respectively. Further, the MIC in experiment [3] is > 40 µg/mL.
As for `O=C(NCCc1ccc(Cl)cc1)c1c(O)cc(O)cc1O` [Compound 0MTK127, N-(4-chlorophenethyl)-2,4,6-trihydroxybenzamide], the results for the IC50 in experiment [1] and in experiment [2] were 370 nM and 1500 nM, respectively. The MIC in experiment [3] was 20 µg/mL (≈ 65 µM).
Regarding `CN(CCc1ccc(Cl)cc1)C(=O)c1c(O)cc(O)cc1O` [Compound 0MTK128, N-(4-chlorophenethyl)-2,4,6-trihydroxy-N-methylbenzamide], the IC50 in experiment [1] is 970 nM; in experiment [2], > 100000 nM. Moreover, the MIC in experiment [3] is > 20 µg/mL.
For `CC(C)(CNC(=O)c1c(O)cc(O)cc1O)c1ccc(Cl)cc1` [Compound 0MTK146, N-(2-(4-chlorophenyl)-2-methylpropyl)-2,4,6-trihydroxybenzamide], the figures for the IC50 in experiment [1] and in experiment [2] were 690 nM and 2700 nM, respectively. In experiment [3], the MIC came out at 22 µg/mL (≈ 65.5 µM).
Turning to `O=C(NCc1ccc(Oc2ccccc2)cc1)c1c(O)cc(O)cc1O` [Compound 0MTK149, 2,4,6-trihydroxy-N-(4-phenoxybenzyl)benzamide], the IC50 in experiment [1] stood at 140 nM; in experiment [2], 1500 nM. Further, the MIC in experiment [3] was found to be 19 µg/mL (≈ 54.1 µM).
On to `O=C(NCc1ccc(Oc2ccc(F)cc2)cc1)c1c(O)cc(O)cc1O` [Compound 0MTK154, N-(4-(4-fluorophenoxy)benzyl)-2,4,6-trihydroxybenzamide], for which the IC50 turned out to be 420 nM in experiment [1] and 3500 nM in experiment [2]. Further, the MIC in experiment [3] was determined as 15 µg/mL (≈ 40.6 µM).
The matching figures for `O=C(NCc1ccc(Oc2ccc(F)cc2)cc1C(F)(F)F)c1c(O)cc(O)cc1O` [Compound 0MTK155, N-(4-(4-fluorophenoxy)-2-(trifluoromethyl)benzyl)-2,4,6-trihydroxybenzamide]: 790 nM, 8100 nM and 8.1 µg/mL (≈ 18.5 µM).
The matching figures for `O=C(NCCc1ccc(Oc2ccc(F)cc2)cc1)c1c(O)cc(O)cc1O` [Compound 0MTK156, N-(4-(4-fluorophenoxy)phenethyl)-2,4,6-trihydroxybenzamide]: 820 nM, 5500 nM and 8.3 µg/mL (≈ 21.6 µM).
For `O=C(NCc1ccc(Oc2ccccc2)cc1C(F)(F)F)c1c(O)cc(O)cc1O` [Compound 0MTK158, 2,4,6-trihydroxy-N-(4-phenoxy-2-(trifluoromethyl)benzyl)benzamide], in that order: 220 nM, 1800 nM and 5.4 µg/mL (≈ 12.9 µM).
Turning to `O=C(NCc1ccc(Oc2ccc(F)cc2)c(Cl)c1)c1c(O)cc(O)cc1O` [Compound 0MTK174, N-(3-chloro-4-(4-fluorophenoxy)benzyl)-2,4,6-trihydroxybenzamide], the half-inhibitory concentration (IC50) in experiment [1] was 410 nM; in experiment [2], 14000 nM. In addition, the MIC in experiment [3] is 8.6 µg/mL (≈ 21.3 µM).
As for `O=C(NCc1ccc(Oc2ccc(F)cc2)c(F)c1)c1c(O)cc(O)cc1O` [Compound 0MTK175, N-(3-fluoro-4-(4-fluorophenoxy)benzyl)-2,4,6-trihydroxybenzamide], the IC50 in experiment [1] turned out to be 450 nM; in experiment [2], 7000 nM. The MIC in experiment [3] came to 8.6 µg/mL (≈ 22.2 µM).
Consider `Cc1cc(Oc2ccc(F)cc2)ccc1CNC(=O)c1c(O)cc(O)cc1O` [Compound 0MTK176, N-(4-(4-fluorophenoxy)-2-methylbenzyl)-2,4,6-trihydroxybenzamide], for which the IC50 in experiment [1] was 390 nM; in experiment [2], 12000 nM. The MIC in experiment [3] amounted to 5.3 µg/mL (≈ 13.8 µM).
Turning to `COc1cc(Oc2ccc(F)cc2)ccc1CNC(=O)c1c(O)cc(O)cc1O` [Compound 0MTK178, N-(4-(4-fluorophenoxy)-2-methoxybenzyl)-2,4,6-trihydroxybenzamide], the IC50 in experiment [1] was 610 nM; in experiment [2], 18000 nM. In experiment [3], the MIC turned out to be 7.8 µg/mL (≈ 19.5 µM).
Consider `O=C(NCCc1ccc(Oc2cc(Cl)cc(Cl)c2)cc1)c1c(O)cc(O)cc1O` [Compound 0MTK180, N-(4-(3,5-dichlorophenoxy)phenethyl)-2,4,6-trihydroxybenzamide], for which the IC50 in experiment [1] is 830 nM; in experiment [2], 6600 nM. In addition, the MIC in experiment [3] was 1.8 µg/mL (≈ 4.14 µM).
As to `O=C(NCc1ccc(Oc2ccc(F)cc2)cc1Cl)c1c(O)cc(O)cc1O` [Compound 0MTK181, N-(2-chloro-4-(4-fluorophenoxy)benzyl)-2,4,6-trihydroxybenzamide], the IC50 was 1400 nM in experiment [1] and > 60000 nM in experiment [2]. The MIC in experiment [3] is 6.9 µg/mL (≈ 17.1 µM).
As for `COc1ccc(Oc2ccc(CCNC(=O)c3c(O)cc(O)cc3O)cc2)cc1` [Compound 0MTK260, 2,4,6-trihydroxy-N-(4-(4-methoxyphenoxy)phenethyl)benzamide], the IC50 turned out to be 780 nM in experiment [1] and 6200 nM in experiment [2].
For `O=C(NCCc1ccc(Oc2ccc(N3CCOCC3)cc2)cc1)c1c(O)cc(O)cc1O` [Compound 0MTK261, 2,4,6-trihydroxy-N-(4-(4-morpholinophenoxy)phenethyl)benzamide], in that order: 1500 nM and 7500 nM.
In the case of `O=C(NCCc1ccc(Oc2cncnc2)cc1)c1c(O)cc(O)cc1O` [Compound 0MTK262, 2,4,6-trihydroxy-N-(4-(pyrimidin-5-yloxy)phenethyl)benzamide], the IC50 amounted to 1500 nM in experiment [1] and 7400 nM in experiment [2].
Turning to `O=C(NCCc1ccc(Oc2cccc(N3CCOCC3)c2)cc1)c1c(O)cc(O)cc1O` [Compound 0MTK263, 2,4,6-trihydroxy-N-(4-(3-morpholinophenoxy)phenethyl)benzamide], the results for the IC50 in experiment [1] and in experiment [2] were 1300 nM and 7100 nM, respectively.
The matching figures for `O=C(NCCc1ccc(Oc2cccnc2)cc1)c1c(O)cc(O)cc1O` [Compound 0MTK264, 2,4,6-trihydroxy-N-(4-(pyridin-3-yloxy)phenethyl)benzamide]: 820 nM and 3800 nM.
With `O=C(NCCc1ccc(Oc2ccncc2)cc1)c1c(O)cc(O)cc1O` [Compound 0MTK265, 2,4,6-trihydroxy-N-(4-(pyridin-4-yloxy)phenethyl)benzamide], the concentration for half-maximal inhibition (IC50) in experiment [1] was determined as 1300 nM; in experiment [2], 6400 nM.
For `O=C(NCCc1ccc(Oc2ccc(-c3ccncc3)cc2)cc1)c1c(O)cc(O)cc1O` [Compound 0MTK266, 2,4,6-trihydroxy-N-(4-(4-(pyridin-4-yl)phenoxy)phenethyl)benzamide], in that order: 1200 nM and 5100 nM.
For `O=C(NCCc1ccc(Oc2ccc(-c3cccnc3)cc2)cc1)c1c(O)cc(O)cc1O` [Compound 0MTK267, 2,4,6-trihydroxy-N-(4-(4-(pyridin-3-yl)phenoxy)phenethyl)benzamide], in that order: 300 nM and 1700 nM.
As for `O=C(NC1CC1)c1cccc(Oc2ccc(CCNC(=O)c3c(O)cc(O)cc3O)cc2)c1` [Compound 0MTK268, N-(4-(3-(cyclopropylcarbamoyl)phenoxy)phenethyl)-2,4,6-trihydroxybenzamide], the IC50 in experiment [1] stood at 800 nM; in experiment [2], 2900 nM.
The matching figures for `O=C(NCCc1ccc(Oc2cccc(-c3ccncc3)c2)cc1)c1c(O)cc(O)cc1O` [Compound 0MTK269, 2,4,6-trihydroxy-N-(4-(3-(pyridin-4-yl)phenoxy)phenethyl)benzamide]: 700 nM and 3000 nM.

Broadly, the IC50 is the concentration that inhibits the measured activity by half. Usually MIC stands for the lowest concentration that inhibits growth of the organism.
